Some test systems named below: CCRF-CEM leukemia; OVCAR-8 ovarian; RXF 393 renal; SF-295 CNS; SR leukemia; U251 CNS; UACC-257 melanoma; UACC-62 melanoma; ACHN renal; MCF7 breast.
Holding throughout (experiment): inhibition of tumour cell growth, NCI panel, 48 h

Each structure is given as a SMILES string.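 Five compound concentrations were applied to cells in 96-well plates for 48 hours; endpoints were derived by simple linear interpolation of the resulting dose-response curve. TGI is the concentration that stops growth completely.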

The record followed here is PubChem BioAssay (NCI).

Regarding `COCC(=O)[C@]1(O)Cc2c(O)c3c(c(O)c2[C@@H](OC2CC(N)C(O)C(C)O2)C1)C(=O)c1c(OC)cccc1C3=O` (stereo partly specified), the TGI in the experiment on CCRF-CEM leukemia came to 0.4 µM; with OVCAR-8 ovarian, 3.95 µM; in the experiment with RXF 393 renal, 0.267 µM; in the experiment with SF-295 CNS it was 1.34 µM; in the experiment with SR leukemia it was 0.159 µM; with U251 CNS, 1.27 µM. Further, the TGI in the experiment on UACC-257 melanoma was determined as 1.48 µM; in the experiment on UACC-62 melanoma, 0.255 µM.

For the molecule `CC(=O)O[C@H]1CC[C@@]2(C)C(=CC[C@@H]3[C@@H]2CC[C@]2(C)c4nc(N)c(C#N)cc4C[C@@H]32)C1`, the TGI in the experiment on ACHN renal is above 100 µM; in the experiment with CCRF-CEM leukemia, above 89.5 µM; in the experiment with MCF7 breast it was above 100 µM; in the experiment on OVCAR-8 ovarian it was above 100 µM; in the experiment with RXF 393 renal it was 49 µM; in the experiment with SF-295 CNS it was above 100 µM. Besides, the TGI in the experiment with U251 CNS, in the experiment with UACC-257 melanoma and with UACC-62 melanoma was above 100 µM throughout.

Consider `C=C(C)CC1=C(C(=S)NCCO[Si](C)(C)C(C)(C)C)C(OCC)(OCC)C1=O`, for which the TGI in the experiment with ACHN renal was 33.8 µM; in the experiment on CCRF-CEM leukemia it was above 100 µM; in the experiment with MCF7 breast, 35.9 µM; with OVCAR-8 ovarian, above 100 µM; in the experiment with RXF 393 renal, 31.5 µM; in the experiment with SF-295 CNS, 33.1 µM. For the same molecule, the TGI is 63 µM in the experiment on U251 CNS, 32.1 µM in the experiment on UACC-257 melanoma and 33.4 µM with UACC-62 melanoma.

On to `O=C(NN=C1CCCCC1)Nc1ccccc1Cl`, for which the TGI in the experiment on ACHN renal, with CCRF-CEM leukemia, in the experiment on MCF7 breast, in the experiment on OVCAR-8 ovarian, in the experiment on SF-295 CNS and in the experiment with SR leukemia was above 100 µM in each case. Besides, the TGI with U251 CNS, in the experiment on UACC-257 melanoma and in the experiment on UACC-62 melanoma was above 100 µM throughout.

Turning to `c1ccc(C(=NNc2nc3ccccc3[nH]2)c2ccccn2)nc1`, the TGI was 0.698 µM in the experiment on ACHN renal; 0.257 µM in the experiment on CCRF-CEM leukemia; above 33.2 µM with OVCAR-8 ovarian; 35.4 µM in the experiment with SF-295 CNS; 0.271 µM in the experiment with SR leukemia; above 69 µM with U251 CNS. This molecule also registered a TGI with UACC-257 melanoma of 1.92 µM.

Take `O=[N+]([O-])c1cccc2nc3ccccc3c(NCCC[N+]3([O-])CCCCC3)c12`: the TGI in the experiment with ACHN renal is 47.5 µM; in the experiment with CCRF-CEM leukemia, above 36.5 µM; in the experiment on MCF7 breast it was 1.99 µM; in the experiment with OVCAR-8 ovarian, 13.6 µM; in the experiment on RXF 393 renal, 2 µM; in the experiment on SF-295 CNS, 12.6 µM. Moreover, the TGI worked out at 1.24 µM with U251 CNS, 0.55 µM with UACC-257 melanoma and 0.805 µM with UACC-62 melanoma.

Consider `Cc1ccc(NC(=O)c2cccc([N+](=O)[O-])c2O)c(C)c1`, for which the TGI in the experiment on ACHN renal was 89.5 µM; in the experiment with CCRF-CEM leukemia, above 100 µM; with OVCAR-8 ovarian, above 100 µM; in the experiment with SF-295 CNS, 74.3 µM; with SR leukemia, above 100 µM; in the experiment with U251 CNS, above 100 µM. Also, the values for the TGI in the experiment with UACC-257 melanoma and in the experiment with UACC-62 melanoma were 66.2 µM and above 100 µM, respectively.

Regarding `COc1ccc(N2CCN(c3ccc4c(c3)NCC(=O)N4)CC2)cc1`, the TGI was above 100 µM with ACHN renal; above 100 µM with CCRF-CEM leukemia; above 100 µM in the experiment with MCF7 breast; above 100 µM with OVCAR-8 ovarian; above 100 µM in the experiment on SF-295 CNS; 44.4 µM with SR leukemia. In addition, the results for the TGI in the experiment with U251 CNS, with UACC-257 melanoma and in the experiment with UACC-62 melanoma were 68.6 µM, above 100 µM and 56.5 µM, respectively.

For the molecule `CC1CCC2c3c([nH]c4ccccc34)C3C(=O)N(C4CCCCC4)C(=O)C3C2C1` (stereo unspecified), the TGI was 27.8 µM with ACHN renal; above 100 µM with CCRF-CEM leukemia; 42.5 µM in the experiment on OVCAR-8 ovarian; 28.9 µM in the experiment on RXF 393 renal; 37.5 µM in the experiment on SF-295 CNS; above 100 µM in the experiment on SR leukemia. For the same molecule, the TGI is 25.3 µM in the experiment on U251 CNS, above 100 µM in the experiment on UACC-257 melanoma and 28.8 µM in the experiment with UACC-62 melanoma.

On to `[N-]=[N+]=C1CNC(=O)NC1=O`, for which the TGI in the experiment on ACHN renal, with CCRF-CEM leukemia, in the experiment on MCF7 breast, in the experiment on OVCAR-8 ovarian, in the experiment on RXF 393 renal and with SF-295 CNS was above 100 µM in each case. Further, the TGI in the experiment with U251 CNS, with UACC-257 melanoma and with UACC-62 melanoma was above 100 µM each time.

For the molecule `CCN(CC)C(=S)SNCCc1ccc(S(N)(=O)=O)cc1`, the TGI in the experiment on ACHN renal was 34.3 µM; in the experiment with CCRF-CEM leukemia it was 36.8 µM; with OVCAR-8 ovarian it was 25.2 µM; in the experiment with RXF 393 renal, 22.1 µM; with SF-295 CNS, 47.5 µM; with SR leukemia, above 49.4 µM. Also, the TGI in the experiment on U251 CNS was 31.8 µM; in the experiment on UACC-257 melanoma, 32.9 µM; with UACC-62 melanoma, above 94.1 µM.

Take `O=C(c1ccc(Cl)cc1)N(C(=S)N1CCN(c2ccccn2)CC1)c1ccccc1`: the TGI in the experiment on ACHN renal, in the experiment on CCRF-CEM leukemia, with OVCAR-8 ovarian, in the experiment on RXF 393 renal, in the experiment on SF-295 CNS and with SR leukemia was above 100 µM throughout. Also, the TGI in the experiment with U251 CNS, in the experiment with UACC-257 melanoma and with UACC-62 melanoma was above 100 µM in each case.

Regarding `CC(O)(c1ccccc1)c1nccc2ccccc12` (stereo unspecified), the TGI in the experiment with ACHN renal, in the experiment with CCRF-CEM leukemia, with MCF7 breast, with OVCAR-8 ovarian, in the experiment on RXF 393 renal and in the experiment with SF-295 CNS was above 100 µM throughout. The TGI with U251 CNS, with UACC-257 melanoma and in the experiment on UACC-62 melanoma was above 100 µM throughout.

Regarding `Brc1cccc(C2(CCCC3(c4cccc(Br)n4)OCCO3)OCCO2)n1`, the TGI in the experiment with ACHN renal, in the experiment on MCF7 breast, in the experiment on RXF 393 renal, with SF-295 CNS and with UACC-257 melanoma was above 100 µM throughout.

`CC(=O)OCC1OC(OCC2OC(N3C(=S)N[C@H]([C@@H](O)[C@H](O)[C@H](O)CO)[C@H]3O)C(OC(C)=O)C(OC(C)=O)C2OC(C)=O)C(OC(C)=O)C(OC(C)=O)C1OC(C)=O` (stereo partly specified): the TGI with ACHN renal, with MCF7 breast, in the experiment on OVCAR-8 ovarian, in the experiment with RXF 393 renal, with SF-295 CNS and with SR leukemia was above 100 µM throughout. Also, the TGI in the experiment on U251 CNS and with UACC-62 melanoma was above 100 µM in each case.
